From patent US20240216354A1, “IMMUNOMODULATORY IMIDE DRUGS AS ZETA-CHAIN-ASSOCIATED PROTEIN KINASE 70 (ZAP70) AGONISTS AND USES THEREOF” (Dana-Farber Cancer Institute, Inc., priority 2019, published 2024)

Columns and labels:
[1] = target: T1, Zap-70 (Homo sapiens, UniProt P43403); assay: Immunoblotting of p-Zap-70, p-LAT and p-ERK in PBMCs; assay type: cell-based; design: endogenous in cells; host or cells: primary PBMCs, primary T cells and primary NK cells from healthy volunteers
T1 sequence (P43403 1-619): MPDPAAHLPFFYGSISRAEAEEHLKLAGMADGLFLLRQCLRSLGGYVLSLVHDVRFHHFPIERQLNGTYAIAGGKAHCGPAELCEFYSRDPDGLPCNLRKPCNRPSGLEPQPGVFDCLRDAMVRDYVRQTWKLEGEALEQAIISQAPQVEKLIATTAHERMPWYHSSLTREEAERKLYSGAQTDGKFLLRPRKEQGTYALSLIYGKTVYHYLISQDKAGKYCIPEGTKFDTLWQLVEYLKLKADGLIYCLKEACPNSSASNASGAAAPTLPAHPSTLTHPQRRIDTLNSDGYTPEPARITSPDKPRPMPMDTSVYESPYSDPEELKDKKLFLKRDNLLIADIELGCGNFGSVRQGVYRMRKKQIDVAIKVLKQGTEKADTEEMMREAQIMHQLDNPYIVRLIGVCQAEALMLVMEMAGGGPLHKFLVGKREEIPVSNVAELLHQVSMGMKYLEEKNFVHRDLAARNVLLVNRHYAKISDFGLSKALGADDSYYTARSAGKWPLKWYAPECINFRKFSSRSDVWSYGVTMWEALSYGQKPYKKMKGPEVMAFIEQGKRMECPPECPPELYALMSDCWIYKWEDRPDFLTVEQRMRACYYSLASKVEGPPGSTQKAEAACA
Procedure: (§1) (A) PBMCs were cultured with pomalidomide (“Pom”) (0.01-1 μM) for 16 h. […] (B) PBMCs were cultured with pomalidomide (0.1 and 1 μM) for the indicated time periods. (C) PBMCs were cultured with lenalidomide (“Len”) (1 μM) for 16 h. (D) Primary T-cells from healthy volunteer were cultured with pomalidomide (0.25-1 μM) for 16 h. (E) Jurkat cells were cultured with pomalidomide (0.5 and 1 μM) for 16 h. Whole cell lysates were subjected to immunoblotting (A-E) using indicated Abs. (F) Jurkat cells were cultured with pomalidomide (0.01-1 μM) or lenalidomide (0.01-1 μM) for 72 h. Cell growth was assessed by MTT assay.
To characterize the effect of IMiDs on Zap-70 function in immune effector cells, pomalidomide triggered phosphorylation of Zap-70 was evaluated along with its known downstream target linker of activated T-cells (LAT) in PBMCs from healthy volunteers. […] Image J densitometric analysis confirmed 42% increased p-Zap-70 after pomalidomide (1 μM) treatment (FIG. 1A, lower panel). The increased p-Zap-70, p-LAT, as well as downstream p-ERK in PBMCs triggered by pomalidomide is also time-dependent (FIG. 1B). […] Since Zap-70 is a mediator of T-cell receptor signaling, whether IMiDs triggered p-Zap-70 in T cells from healthy volunteers was studied.

[2] = system: Jurkat cells; assay: Jurkat cell growth by MTT assay; assay type: cell-based; conditions: 0.01-1 μM, 72 h
Procedure: as §1

[3] = system: primary NK cells; assay: Primary NK cell viable cell number by trypan-blue dye exclusion; assay type: cell-based, human; conditions: primary NK cells #1, #2, pomalidomide 0-0.5 μM, 24 h
Procedure: Isolated primary NK cells from two healthy volunteers were cultured for 24 h with pomalidomide (0-0.5 μM). Viable cell number was measured by trypan-blue dye exclusion.

[4] = target: T1, Zap-70; assay: PathScan Phospho-Zap-70 (Tyr319) Sandwich ELISA in Jurkat cells; assay type: cell-based; conditions: lenalidomide (1 and 3 μM) or pomalidomide (1 and 3 μM), 4 h and 8 h, Len<Pom
Procedure: (A) Jurkat cells were transfected with scrambled (Sc) siRNA or Zap-70 siRNA. Whole cell lysates were subjected to immunoblotting using indicated Abs. (B) Jurkat cells were treated with lenalidomide ([…]) or pomalidomide (1 and 3 μM) for 4 h and 8 h. Whole cell lysates were subjected to p-Zap ELISA assay. (C) Jurkat whole cell lysates were incubated with pomalidomide-beads in the presence or absence of competitor (1 mM free pomalidomide) for 1 h. After elution, samples were subjected to immunoblotting using anti-Zap-70 Ab. (D) Saturation-transfer difference resulting from the binding of pomalidomide to Zap-70. Pomalidomide is at 320 μM and Zap-70 is approximately 2 μM in deuterated PBS solution. […] (E) Saturation-transfer difference resulting from the binding of pomalidomide to Zap-70 in the presence of 2.56 mMATP. Pomalidomide is at 320 μM and Zap-70 is approximately 2 μM in deuterated PBS solution. […] Note that both ATP and pomalidomide show binding the Zap-70. (F) Non-cell based Zap-70 kinase assay was carried out, according to manufacturer's protocol.
Phosphorylation of Zap-70 was evaluated using PathScan Phospho-Zap-70 (Tyr319) Sandwich ELISA Kit (Cell Signaling Technology), according to manufacturer's protocol.

SMILES: Nc1cccc2c1C(=O)N(C1CCC(=O)NC1=O)C2=O (stereo not shown) [pomalidomide]
- phosphorylation of LAT (immunoblotting) ([1]; 16 h, Pom 0.01-1 μM, Len 1 μM): induced phosphorylation of both Zap-70 and LAT in PBMCs in a dose-dependent fashion
- phosphorylation of Zap-70 (immunoblotting) ([1]; 16 h, Pom 0.01-1 μM, Len 1 μM): induced phosphorylation of both Zap-70 and LAT in PBMCs in a dose-dependent fashion
- increased p-Zap-70, Image J densitometric analysis ([1]; pomalidomide 1 μM, 16 h): 42%
- increased p-Zap-70, p-LAT and downstream p-ERK over time ([1]; pomalidomide 0.1 and 1 μM, indicated time periods): time-dependent
- proliferation / cell growth (MTT) [2]: without altering their proliferation
- NK cell growth (viable cell number) [3]: without significantly effecting NK cell growth
- p-Zap-70 (Tyr319) by ELISA [4]: increased p-Zap-70 (Tyr319) in a dose-dependent fashion
